This passage reports IC50 and CC50 results from ChEMBL document CHEMBL1151031, “Lipophilic bis-arylsulfonates as inhibitors of the CD4-gp120 interaction” (Bioorg Med Chem Lett, 1996).

pIC50: −log10 of the molar value. Some results are limits rather than exact numbers.

Experiment [1] is described as follows: Inhibition of HIV gp120 binding to CD4 receptor using ELISA assay. Details: species or system Human immunodeficiency virus 1. For orientation: ELISA stands for enzyme-linked immunosorbent assay.
A short description of experiment [2]: Inhibition of gp120 binding to CEM cells in vitro. It is filed as functional, cell-based. The conditions noted are these: ccrf-cem.
Experiment [3] has as its system CCRF-CEM. The experiment in a line: Compound was evaluated for the cytotoxicity against CEM cells. It is filed as functional. The conditions noted are these: Homo sapiens, read-out: CD50 (the source's name).
Experiment [4] relates to CCRF-CEM. Nature of the experiment: Compound was evaluated for the inhibition of gp120 binding to monoclonal antibodies in CEM cells; Flat dose response. It is filed as functional, cell-based, Homo sapiens.

The pIC50 is −log10 of the IC50, conventionally taken in molar units. Read a low pIC50 as a large IC50. Take `O=S(=O)(O)c1ccc2c(C(=CC3CCCCCCCCC3)c3cccc4cc(S(=O)(=O)O)ccc34)cccc2c1`: the pIC50 in experiment [1] is less than 3.40; in experiment [2], 3.82.
On to `CCCCCCCC1(C)CCc2c(C)c(OCCC=C(c3cccc4cc(S(=O)(=O)O)ccc34)c3cccc4cc(S(=O)(=O)O)ccc34)c(C)c(C)c2O1` (centres undefined), for which the pIC50 in experiment [1] is 4.39; in experiment [2], 4.64.
Regarding `O=S(=O)(O)c1ccc2c(C(=CCCc3ccc4ccccc4c3)c3cccc4cc(S(=O)(=O)O)ccc34)cccc2c1`, the pIC50 in experiment [1] was less than 3.46; in experiment [2] it was less than 3.77.
The molecule `CCCCC/C=C/C/C=C/CCCCCCC=C(c1cccc2cc(S(=O)(=O)O)ccc12)c1cccc2cc(S(=O)(=O)O)ccc12` gave a pIC50 in experiment [1] of 4.25.
As to `C[C@]12CCC(C=C(c3cccc4cc(S(=O)(=O)O)ccc34)c3cccc4cc(S(=O)(=O)O)ccc34)CC1CC[C@@H]1[C@@H]2CC[C@]2(C)C(=O)CC[C@@H]12` (some centres undefined), the results for the pIC50 in experiment [1] and in experiment [2] were 3.97 and 4.46, respectively.
As to `C[C@@]12CCC[C@H]1[C@@H]1CCC3CC(C=C(c4cccc5cc(S(=O)(=O)O)ccc45)c4cccc5cc(S(=O)(=O)O)ccc45)CC[C@]3(C)[C@H]1CC2` (some centres undefined), the pIC50 in experiment [1] is 4.59; in experiment [2] it was 4.77.
Regarding `CC(C)CCCC(C)[C@H]1CC[C@H]2[C@@H]3CCC4CC(CCC=C(c5cccc6ccc(S(=O)(=O)O)cc56)c5cccc6ccc(S(=O)(=O)O)cc56)CC[C@]4(C)[C@H]3CC[C@]12C` (some centres undefined), the pIC50 in experiment [1] is 5.00; in experiment [2] it was 5.15. Also, the CC50 in the experiment with CCRF-CEM [3] came to 120 µM.
Turning to `CC(C)CCCC(C)[C@H]1CC[C@H]2[C@@H]3CCC4C[C@@H](CCC=C(c5cc(Cl)c(O)c(C(=O)O)c5)c5cc(Cl)c(O)c(C(=O)O)c5)CC[C@]4(C)[C@H]3CC[C@]12C` (some centres undefined), the pIC50 is 4.74 in experiment [1] and 5.30 in experiment [2].
As for `CC(C)CCCC(C)[C@H]1CC[C@H]2[C@@H]3CCC4CC(OCCC=C(c5cccc6cc(S(=O)(=O)O)ccc56)c5cccc6cc(S(=O)(=O)O)ccc56)CC[C@]4(C)[C@H]3CC[C@]12C` (some centres undefined), the pIC50 was 4.51 in experiment [1] and 5.22 in experiment [2].
Turning to `CC(C)CCCC(C)[C@H]1CC[C@H]2[C@@H]3CCC4CC(C=C(c5cccc6ccc(S(=O)(=O)O)cc56)c5cccc6ccc(S(=O)(=O)O)cc56)CC[C@]4(C)[C@H]3CC[C@]12C` (some centres undefined), the negative logarithm of the IC50 (pIC50) in experiment [1] was 5.00; in experiment [2], 4.60. In the experiment with CCRF-CEM [3], the CC50 was 125 µM.
Take `CC(C)CCCC(C)[C@H]1CC[C@H]2[C@@H]3CC[C@@H]4CC(C=C(c5cccc6cc(S(=O)(=O)O)ccc56)c5cccc6cc(S(=O)(=O)O)ccc56)CC[C@]4(C)[C@H]3CC[C@]12C` (some centres undefined): the pIC50 in experiment [1] was 4.59; in experiment [2], 4.89.
As for `C[C@]12CC[C@H]3[C@@H](CCC4CC(C=C(c5cccc6cc(S(=O)(=O)O)ccc56)c5cccc6cc(S(=O)(=O)O)ccc56)CC[C@@]43C)[C@@H]1CC[C@@H]2O` (some centres undefined), the pIC50 in experiment [1] is 4.08; in experiment [2] it was 4.62.
Regarding `CC(C)CCCC(C)[C@H]1CC[C@H]2[C@@H]3CCC4CC(C=C(c5ccc(S(=O)(=O)O)cc5)c5ccc(S(=O)(=O)O)cc5)CC[C@]4(C)[C@H]3CC[C@]12C` (some centres undefined), the pIC50 in experiment [1] was 5.00; in experiment [2], 4.41. The CC50 in the experiment on CCRF-CEM [3] was found to be 56 µM.
As to `CC(C)CCCC(C)[C@H]1CC[C@H]2[C@@H]3CCC4CC(C=C(c5cccc(S(=O)(=O)O)c5)c5cccc(S(=O)(=O)O)c5)CC[C@]4(C)[C@H]3CC[C@]12C` (some centres undefined), the pIC50 in experiment [1] was 4.21. Moreover, the IC50 result in the experiment with CCRF-CEM [4] is given as “Flat dose response”.
Regarding `CC(C)CCCC(C)[C@H]1CC[C@H]2[C@@H]3CCC4CC(C=C(c5cccc6cc(S(=O)(=O)O)ccc56)c5cccc6cc(S(=O)(=O)O)ccc56)CC[C@]4(C)[C@H]3CC[C@]12C` (some centres undefined), the pIC50 in experiment [1] is 4.80; in experiment [2] it was 5.22.
As for `C=CCO[C@H]1CC[C@H]2[C@@H]3CCC4CC(C=C(c5cccc6cc(S(=O)(=O)O)ccc56)c5cccc6cc(S(=O)(=O)O)ccc56)CC[C@]4(C)[C@H]3CC[C@]12C` (some centres undefined), the negative-log IC50 (pIC50) was 4.48 in experiment [1] and 4.92 in experiment [2]. For the same molecule, the CC50 in the experiment with CCRF-CEM [3] is 100 µM.
For the molecule `CC(C)CCCC(C)[C@H]1CC[C@H]2[C@@H]3CCC4CC(CCC=C(c5ccc(S(=O)(=O)O)cc5)c5ccc(S(=O)(=O)O)cc5)CC[C@]4(C)[C@H]3CC[C@]12C` (some centres undefined), the values for the pIC50 in experiment [1] and in experiment [2] were 4.89 and 4.33, respectively. Further, the CC50 with CCRF-CEM [3] came out at 135 µM.
Take `CCCCCCCCCCCCCCCCC=C(c1cccc2cc(S(=O)(=O)O)ccc12)c1cccc2cc(S(=O)(=O)O)ccc12`: the negative-log IC50 (pIC50) in experiment [1] is 3.72.
Take `O=S(=O)(O)c1ccc2c(C(=CC3CCCCCCCCCCCCCC3)c3cccc4cc(S(=O)(=O)O)ccc34)cccc2c1`: the pIC50 is 3.89 in experiment [1] and 4.28 in experiment [2].
On to `O=S(=O)(O)c1ccc2c(C(=CCCc3ccc4c(c3)CCc3ccccc3-4)c3cccc4cc(S(=O)(=O)O)ccc34)cccc2c1`, for which the results for the negative logarithm of the IC50 (pIC50) in experiment [1] and in experiment [2] were 3.53 and 4.31, respectively.
For `CCCCCCCCCCCCCCCCC1(C)CCc2c(C)c(OCCC=C(c3cccc4cc(S(=O)(=O)O)ccc34)c3cccc4cc(S(=O)(=O)O)ccc34)c(C)c(C)c2O1` (centres undefined), the pIC50 is 4.60 in experiment [1] and 5.30 in experiment [2].
As for `CC(C)CCCC(C)[C@H]1CC[C@H]2[C@@H]3CCC4CC(CCC=C(c5cccc6cc(S(=O)(=O)O)ccc56)c5cccc6cc(S(=O)(=O)O)ccc56)CC[C@]4(C)[C@H]3CC[C@]12C` (stereo in doubt), the values for the pIC50 in experiment [1] and in experiment [2] were 4.74 and 5.05, respectively.
`CC(C)CCCC(C)[C@H]1CC[C@H]2[C@@H]3CCC4CC(CCC=C(c5cccc6cc(S(=O)(=O)O)ccc56)c5cccc6cc(S(=O)(=O)O)ccc56)CC[C@]4(C)[C@H]3CC[C@]12C` (stereo in doubt; 1401): the pIC50 in experiment [1] is 5.05; in experiment [2] it was 5.15.
